For three compounds, EC50 results are on record in publication PMC4079120 (Journal of the American Chemical Society, 2013).

This experiment deals with GABA-A receptor. Nature of the experiment: block of evoked GABA-A receptor currents in layer […] pyramidal neurons.

As to `COc1ccc([N+](=O)[O-])c2c1CCN2C(=O)CC[C@H](N)C(=O)O` [MNI-Glu], the EC50 came to 105 µM.
Next, RuBi-Glu: 7.7 µM; DEAC450-Glu [compound 7]: roughly 33 µM.
